# Source: patent US6403055B1, “Diagnostic imaging contrast agent with improved in serum relaxivity” (Dibra S.p.A., priority 1996, dated 2002)
# Legend:
# [1] = Relaxivity (r1, r2) in human serum (Seronorm™ Human); type: physicochemical; conditions: Between 0 and 1 mM (Seronorm™ Human) - 20 MHz - 39° C.
# From the text: (§1) Relaxivity values of the contrast agent of the present invention have been tested either in saline or in human serum obtained by Seronorm™ Human, freeze-dried human serum produced by Nycomed Pharma AS, Oslo, Norway. Serum obtained from said Seronorm™ is substantially equivalent to the fresh one, so its use in the relaxivity determination grants a good picture of the “in vivo” behaviour and, further, an excellent reproducibility of this test.
# The compounds object of the present invention are characterised by very high r1 and r2 relaxivity values. When measured in Seronorm™ Human at 20 MHz, at a temperature of 39° C., and at a concentration comprised from 0 to 1 mM, the compounds of the present invention have r1 relaxivity equal to or, preferably, higher than 15 s^−1mm^−1.
# [2] = Relaxivity (r1, r2) in saline; type: physicochemical; conditions: NaCl 0.15M in water - pH 7.3 - 20 MHz - 39° C.
# From the text: as §1
compound,measurement,setting,value
"CCC(C)C(C(=O)[O-])N(CCN(CCN(CC(=O)[O-])C(C(=O)[O-])C(C)CC)[C@H](C(=O)[O-])[C@@H](C)CC)CC(=O)[O-].[Gd+3].[Na+].[Na+] (relative stereo) [Compound 2, [[[1S-[1R*(1R*,2R*),2R*]]-N,N-Bis[2-[(carboxymethyl)(1-carboxy-2-methylbutyl)amino]ethyl]-L-isoleucinate-(5-)]gadolinate(2-)]disodium salt.]",Relaxivity Serum r1,[1],11.9 mM⁻¹ s⁻¹
same,Relaxivity Saline r1,[2],5.07 mM⁻¹ s⁻¹
